± gives the expanded uncertainty stated by the source.
Assay: xn = mol fraction of the nth substance listed
Conditions: 101 kPa, Liquid; for viscosity: Capillary tube (Ostwald / Ubbelohde) method

CCOC(=O)OCC [diethyl carbonate] + Cc1ccccc1
viscosity (333.15 K, x1 = 0.1014): 0.394 ± 0.007 mPa·s | viscosity (333.15 K, x1 = 0.1984): 0.403 ± 0.007 mPa·s | viscosity (333.15 K, x1 = 0.3006): 0.413 ± 0.007 mPa·s | viscosity (333.15 K, x1 = 0.4024): 0.422 ± 0.007 mPa·s | viscosity (333.15 K, x1 = 0.5212): 0.434 ± 0.007 mPa·s | viscosity (333.15 K, x1 = 0.6022): 0.442 ± 0.007 mPa·s | viscosity (333.15 K, x1 = 0.7016): 0.452 ± 0.007 mPa·s | viscosity (333.15 K, x1 = 0.7995): 0.461 ± 0.007 mPa·s | viscosity (333.15 K, x1 = 0.8975): 0.471 ± 0.007 mPa·s | viscosity (333.15 K, x1 = 1): 0.483 ± 0.007 mPa·s | mass density (333.15 K, x1 = 0.1014): 841.39 ± 2.2 kg/m3 | mass density (333.15 K, x1 = 0.1984): 852.01 ± 2.1 kg/m3 | mass density (333.15 K, x1 = 0.3006): 862.85 ± 2 kg/m3 | mass density (333.15 K, x1 = 0.4024): 873.3 ± 1.9 kg/m3 | mass density (333.15 K, x1 = 0.5212): 885.09 ± 1.8 kg/m3 | mass density (333.15 K, x1 = 0.6022): 892.88 ± 1.8 kg/m3 | mass density (333.15 K, x1 = 0.7016): 902.2 ± 1.7 kg/m3 | mass density (333.15 K, x1 = 0.7995): 911.11 ± 1.6 kg/m3 | mass density (333.15 K, x1 = 0.8975): 919.81 ± 1.5 kg/m3 | mass density (333.15 K, x1 = 1): 928.69 ± 1.4 kg/m3 | viscosity (343.15 K, x1 = 0.1014): 0.358 ± 0.007 mPa·s | viscosity (343.15 K, x1 = 0.1984): 0.365 ± 0.007 mPa·s | viscosity (343.15 K, x1 = 0.3006): 0.373 ± 0.007 mPa·s | viscosity (343.15 K, x1 = 0.4024): 0.382 ± 0.007 mPa·s | viscosity (343.15 K, x1 = 0.5212): 0.391 ± 0.007 mPa·s | viscosity (343.15 K, x1 = 0.6022): 0.398 ± 0.007 mPa·s | viscosity (343.15 K, x1 = 0.7016): 0.407 ± 0.007 mPa·s | viscosity (343.15 K, x1 = 0.7995): 0.415 ± 0.007 mPa·s | viscosity (343.15 K, x1 = 0.8975): 0.425 ± 0.007 mPa·s | viscosity (343.15 K, x1 = 1): 0.435 ± 0.007 mPa·s | mass density (343.15 K, x1 = 0.1014): 831.46 ± 2.3 kg/m3 | mass density (343.15 K, x1 = 0.1984): 841.79 ± 2.2 kg/m3 | mass density (343.15 K, x1 = 0.3006): 852.32 ± 2.1 kg/m3 | mass density (343.15 K, x1 = 0.4024): 862.48 ± 2 kg/m3 | mass density (343.15 K, x1 = 0.5212): 873.94 ± 1.9 kg/m3 | mass density (343.15 K, x1 = 0.6022): 881.51 ± 1.9 kg/m3 | mass density (343.15 K, x1 = 0.7016): 890.57 ± 1.8 kg/m3 | mass density (343.15 K, x1 = 0.7995): 899.24 ± 1.7 kg/m3 | mass density (343.15 K, x1 = 0.8975): 907.69 ± 1.6 kg/m3 | mass density (343.15 K, x1 = 1): 916.33 ± 1.6 kg/m3 | viscosity (353.15 K, x1 = 0.1014): 0.318 ± 0.006 mPa·s | viscosity (353.15 K, x1 = 0.1984): 0.326 ± 0.006 mPa·s | viscosity (353.15 K, x1 = 0.3006): 0.334 ± 0.006 mPa·s | viscosity (353.15 K, x1 = 0.4024): 0.342 ± 0.007 mPa·s | viscosity (353.15 K, x1 = 0.5212): 0.352 ± 0.007 mPa·s | viscosity (353.15 K, x1 = 0.6022): 0.358 ± 0.007 mPa·s | viscosity (353.15 K, x1 = 0.7016): 0.367 ± 0.007 mPa·s | viscosity (353.15 K, x1 = 0.7995): 0.375 ± 0.007 mPa·s | viscosity (353.15 K, x1 = 0.8975): 0.384 ± 0.007 mPa·s | viscosity (353.15 K, x1 = 1): 0.393 ± 0.007 mPa·s | mass density (353.15 K, x1 = 0.1014): 821.53 ± 2.4 kg/m3 | mass density (353.15 K, x1 = 0.1984): 831.67 ± 2.3 kg/m3 | mass density (353.15 K, x1 = 0.3006): 842.02 ± 2.2 kg/m3 | mass density (353.15 K, x1 = 0.4024): 852.02 ± 2.1 kg/m3 | mass density (353.15 K, x1 = 0.5212): 863.29 ± 2 kg/m3 | mass density (353.15 K, x1 = 0.6022): 870.74 ± 2 kg/m3 | mass density (353.15 K, x1 = 0.7016): 879.66 ± 1.9 kg/m3 | mass density (353.15 K, x1 = 0.7995): 888.2 ± 1.8 kg/m3 | mass density (353.15 K, x1 = 0.8975): 896.52 ± 1.7 kg/m3 | mass density (353.15 K, x1 = 1): 905.02 ± 1.7 kg/m3 | viscosity (363.15 K, x1 = 0.1014): 0.293 ± 0.006 mPa·s | viscosity (363.15 K, x1 = 0.1984): 0.3 ± 0.006 mPa·s | viscosity (363.15 K, x1 = 0.3006): 0.306 ± 0.006 mPa·s | viscosity (363.15 K, x1 = 0.4024): 0.313 ± 0.006 mPa·s | viscosity (363.15 K, x1 = 0.5212): 0.322 ± 0.006 mPa·s | viscosity (363.15 K, x1 = 0.6022): 0.328 ± 0.006 mPa·s | viscosity (363.15 K, x1 = 0.7016): 0.336 ± 0.007 mPa·s | viscosity (363.15 K, x1 = 0.7995): 0.343 ± 0.007 mPa·s | viscosity (363.15 K, x1 = 0.8975): 0.351 ± 0.007 mPa·s | viscosity (363.15 K, x1 = 1): 0.358 ± 0.007 mPa·s | mass density (363.15 K, x1 = 0.1014): 808.79 ± 2.5 kg/m3 | mass density (363.15 K, x1 = 0.1984): 819.07 ± 2.5 kg/m3 | mass density (363.15 K, x1 = 0.3006): 829.57 ± 2.4 kg/m3 | mass density (363.15 K, x1 = 0.4024): 839.71 ± 2.3 kg/m3 | mass density (363.15 K, x1 = 0.5212): 851.16 ± 2.1 kg/m3 | mass density (363.15 K, x1 = 0.6022): 858.77 ± 2.1 kg/m3 | mass density (363.15 K, x1 = 0.7016): 867.85 ± 2 kg/m3 | mass density (363.15 K, x1 = 0.7995): 876.55 ± 1.9 kg/m3 | mass density (363.15 K, x1 = 0.8975): 885.04 ± 1.8 kg/m3 | mass density (363.15 K, x1 = 1): 893.71 ± 1.8 kg/m3

Source: the NIST ThermoML archive (doi:10.1021/je050414d)
